Entries after “also recorded” stand apart in the source; their conditions may differ. Read-outs that look alike come from different tables or passages of the source.
Experiments:
CYP24A1 = CYP24A1 expression induction in HL-60 promyelocytic leukemia cells (real-time RT-PCR); type: cell-based; settings: Homo sapiens, HL-60 cells
Description: Some compounds were tested in HL-60 promyelocytic leukemia cells and a primary culture of human coronary artery smooth muscle cells (HCASMC) for CYP24A1 induction. It is well documented that CYP24A1 has a VDRE in its promoter region and is a specific target gene of VDR (Meyer et al., 2007, J Biol Chem 282: 22344-22352). […] Compounds also were tested in HCASMC for their effects in inducing VDR. To assess the suitability of a compound for modulating immune responses, compounds were tested in HL-60 for their effects in inducing CD14 expression. To assess the suitability of a compound for treating thrombosis, compounds also were tested in HCASMC for their effects in modulating thrombomodulin and thrombospondin-1.
Compounds are tested in human HL-60 promyelocytic leukemia cells to assess their potency in inducing the expression of CYP24A1 and CD14. HL-60 cells are cultured in IMDM supplemented with 20% heat-inactivated fetal bovine serum at 37° C. in a humidified 5% CO2-95% air atmosphere. Cells are plated into 6 well plates and treated with test agent for 24 h. Cells are lysed with the addition of 1 mL of Trizol and RNA prepared according to the manufacturer's protocol.
Real-time reverse transcription-PCR is performed with the forward and reverse PCR primers and 250 nM of the TAQMAN™ probe specifically designed for CYP24A1 or CD14. (A TAQMAN™ probe is comprised of a fluorophore covalently attached to the 5′-end of the oligonucleotide probe and a quencher at the 3′-end.) After the data acquisition, the CYP24A1 or CD14 mRNA expression level is normalized to the GAPDH mRNA level. FIGS. 2A and 2B show the results from a typical CYP24A1 (FIG. 2A) and CD14 (FIG. 2B) expression study.

[1] = tested on: 5/6 nephrectomized uremic rats; assay: Left ventricular hypertrophy in 5/6 nephrectomized uremic rats; type: in vivo, Sprague Dawley rats; settings: 5/6 NX rats; for cardiomyocyte morphology: hematoxylin-eosin
Description: The experimental conditions using the 5/6 (subtotal) nephrectomized rats were as described above. Twenty-four hours after the last dose, the rats were anesthetized with pentobarbital sodium (35 mg/kg, i.p.). The animals were sacrificed by cervical dislocation. The hearts were taken and washed with cold saline. After removing the residual saline with filter paper, the weight of the freshly dissected hearts and left ventricles were measured, and the ratio of left ventricle weight to body weight (LVW/BW) and/or left ventricle weight to heart weight (LVW/HW) were calculated. Thereafter, the left ventricles were rapidly put into liquid nitrogen until ready for histological and immunohistochemical analysis.
To examine the cardiomyocyte morphology, the left ventricular tissue was fixed in a 4% formaldehyde-phosphate-buffered saline (pH 7.4) solution overnight. The samples were embedded in wax and cut into 4 μm sections. The sections were stained with hematoxylin-eosin and examined under a microscope.
To determine the diameter of cardiomyocytes, a previously published method was followed (Xiang et al., 2005, Am J Physiol Endocrinol Metab 288: E125-132). The sections of left ventricles were stained with FITC-labeled wheat germ agglutinin (1:5 dilution) for 2 h at room temperature and then examined under a fluorescence microscope to visualize the myocyte membrane. The relative size of the cardiomyocytes was quantified by measuring the diameter of the myocytes, which was the distance between the two plasma membranes of a cell in longitudinal section. The measurement was done using ImageJ software. Data were obtained from 30 cells randomly selected from 5-10 microscopic fields of left ventricle slides.
Group mean±SEM are presented. Differences between SHAM, vehicle, and treated animals were assessed using a t-test, a one-way ANOVA followed by a Dunnett's post-hoc test, or a two-way ANOVA, followed by a Bonferonni post-hoc test. Similar to the human CKD condition, the 5/6 (subtotal) nephrectomized rats are known to develop left ventricular hypertrophy (Wolf et al., 2000, Journal of Cardiovascular Pharmacology 36: S348-350). Some animals were sacrificed before treatment to evaluate the development of left ventricular hypertrophy.

normal mice = assay: Hypercalcemic side effect profile and serum PTH in normal mice; type: in vivo, Male C57/BL mice; settings: for dose at which compound starts to raise serum Ca: i.p. dosing once daily for 3 consecutive days
Description: The normal mice model is a convenient and quick way to assess the hypercalcemic side effect profile of compounds. At the same time, data on serum PTH can be collected.
Male C57/BL mice at 18-20 g are dosed with the test agent at 100 al/mouse (concentrations as indicated) i.p. once daily for 3 consecutive days or at 10 ml/kg, p.o. gavage, once daily for 5 days. The animals were harvested 24 h after the last dose by anesthetization with ketamine/xylazine. Blood was collected from the aorta. Serum total calcium was measured using the QuantiChrom Calcium Assay kit and/or the Roche Hitachi 912 Chemistry Analyzer. Serum PTH was measured using a PTH Immunoassay. Vehicle control was 100 l/mouse of 5% EtOH/95% propylene glycol for i.p. dosing or 10 ml/kg of 20% Hydroxypropyl-β-Cyclodextrin for p.o. gavage dosing.
For serum chemistry data, group mean±SEM are presented. Differences between vehicle and compound-treated groups are assessed using a one-way ANOVA followed by a Dunnett's post-hoc test. FIGS. 3A and 3B show the results from a typical p.o. gavage dosing study (n=4-9 per group).

[2] = tested on: 5/6 nephrectomized uremic rats; assay: Endothelial function (aortic ring relaxation) in 5/6 nephrectomized uremic rats; type: in vivo, Sprague Dawley rats; settings: 5/6 NX rats; for acetylcholine-induced endothelial-dependent aortic relaxation / sodium nitroprusside (SNP)-induced endothelial-independent relaxation: 2-week treatment, aortic rings precontracted with PE
Description: The experimental conditions using the 5/6 (subtotal) nephrectomized rats were as described above. Twenty-four hours after the last dose, the animals were sacrificed, and the aorta tissues were harvested for the determination of endothelial function.
Rats were anesthetized with pentobarbital sodium (i.p., 35 mg/kg). Thoracic aortas were excised in a cold modified Krebs solution (see below) and a 3 mm aortic ring was suspended in 10 mL tissue baths under 0.5 grams of resting tension in a modified Krebs solution containing (g/L): NaCl 6.9169, KCl 0.3499, NaHCO3 2.0998, MgSO4 0.2901, KH2 PO4 0.1604, CaCl2 0.2663, glucose 1.9994, EDTA 0.026, equilibrated with 5% CO2-95% 02 (pH 7.4 at 37° C.). Aortas were sensitized by the addition of phenylephrine (PE, 3 μM) with 10 min washouts between intervals. Aortas were precontracted with PE (3 μM), and the endothelium-dependent vasodilator acetylcholine (ACh) was added in half-log increments (10^−9 mol/L-10^−4.5 mol/L) at 3-5 min intervals, allowing time for the effect of ACh to plateau. After a 60 min washout, aortas were precontracted with PE (3 μM) and subsequently treated with endothelial-independent vasodilator sodium nitroprusside (SNP; 10^−9 mol/L-10^−6 mol/L) at 3-5 min intervals, allowing time for the effect to plateau. Data were recorded with the BL-420F Data Acquisition & Analysis System.
ACh and SNP-induced relaxation were calculated as the % relaxation of the PE-induced precontraction. Differences in vascular function were determined using a two-way ANOVA, followed by a Bonferonni post-hoc test. […] SNP serves as a source of nitric oxide and induces relaxation via an endothelial-independent pathway.

[3] = 24 h, mRNA normalized to GAPDH, Table 3 summary, some values average of 3 or more determinations, read-out: CYP24A1 EC50
[4] = 2 weeks of treatment, 8 weeks after surgery

Structure (SMILES)	EC50 (CYP24A1; [3]) [nM]	EC50 (CYP24A1; typical study, FIG. 2A, read-out: EC50 for inducing CYP24A1 expression) [nM]	cardiomyocyte morphology ([1]; 0.01 μg/kg)	effect on LVW/BW ([1]; 0.04 μg/kg alone, 3×/week, i.p. for 2 weeks)	effect on LVW/BW ([1]; 0.04 μg/kg plus losartan (0.025 mg/ml in drinking water))	cardiomyocyte morphology ([1]; 0.16 μg/kg, 3×/week, i.p. for 2 weeks)	cardiomyocyte diameter ([1]; 0.01-0.64 μg/kg, 2 weeks of treatment, FIG. 19)	effect on LVW/BW (left ventricle weight to body weight) [1, 4]	effect on LVW/HW (left ventricle weight to heart weight) [1, 4]	dose at which compound starts to raise serum Ca (normal mice) [µg/kg]	dose at which compound starts to raise serum calcium (normal mice; p.o. gavage once daily for 5 days, FIG. 3A) [µg/kg]	dose at which compound starts to suppress PTH (normal mice; p.o. gavage once daily for 5 days, FIG. 3B) [µg/kg]	acetylcholine-induced endothelial-dependent aortic relaxation [2]	sodium nitroprusside (SNP)-induced endothelial-independent relaxation [2]	effect on LVW/BW ([1]; 0.16 and 0.64 μg/kg, FIG. 17)	acetylcholine-induced endothelial-dependent relaxation ([2]; treatment with 0.16 and 0.64 μg/kg)
C=C1[C@H](O)CC(=C/C=C2\CCCC3(C)C2CCC3[C@@H](C)OC[C@H](C)C(C)(C)O)C[C@H]1O (stereo partly drawn) [Vida-5, (1R,3R)-5-((E)-2-((3αS,7αS)-1-((R)-1-((S)-3-hydroxy-2,3-dimethylbutoxy)ethyl)-7α-methyldihydro-1H-inden-4(2H,5H,6H, 7H, 7αH)-ylidene)ethylidene)-2-methylenecyclohexane-1,3-diol]	7.3	5.6	improved the morphology of the cardiomyocytes	completely normalized LVW/BW	completely normalized LVW/BW	nearly restored the morphology of the cardiomyocytes back to the Sham level	decreases cardiomyocytes diameter; also recorded: significantly reduced	significantly reduces; also recorded: dose-dependent effect on reducing	significantly reduces; also recorded: dose-dependent effect on reducing	1	5	0.05	improves; also recorded: dose-dependent improvement; also recorded: potent in improving endothelial function	no significant effect		
CCC(O)(CC)CCO[C@H](C)C1CCC2/C(=C/C=C3C[C@@H](O)C4(CC4)[C@H](O)C3)CCCC21C (stereo partly drawn) [Vida-10, (4R,8R)-6-((E)-2-((1S,7αS)-1-((R)-1-(3-ethyl-3-hydroxypentyloxy)ethyl)-7α-methyldihydro-1H-inden-4(2H,5H,6H,7H,7αH)-ylidene)ethylidene)spiro[2.5]octane-4,8-diol]	6.8							dose-dependent effect on reducing		1			improves endothelial function; also recorded: dose-dependent improvement; also recorded: potent in improving endothelial function	no significant effect	significantly reduced	back to the Sham level
C=C1[C@H](O)CC(=C/C=C2\CCCC3(C)C2CCC3[C@@H](C)OCCC(O)(CC)CC)C[C@H]1O (stereo partly drawn) [Vida-11, (1R,3R)-5-((E)-2-((1S,3αS,7αS)-1-((R)-1-(3-ethyl-3-hydroxypentyloxy)ethyl)-7α-methyldihydro-1H-inden-4(2H, 5H, 6H, 7H, 7αH)-ylidene)ethylidene)-2-methylenecyclohexane-1,3-diol]	0.8							reduced LVW/BW at the two lower doses, but not at 0.16 μg/kg		0.1			improves; also recorded: dose-dependent improvement; also recorded: potent in improving endothelial function	no significant effect		

From US20180327354A1, “Unnatural Analogues of Calcitriol and Uses Thereof” (Vidasym, Inc., priority 2009, published 2018)
